The test system of assay [1] is Escherichia coli. The assay is described as follows: Antimicrobial activity against Escherichia coli at 10 ug/disk. Format: functional, organism-based.
The subject of assay [2] is Staphylococcus aureus. The experiment in a line: Antimicrobial activity against Staphylococcus aureus at 10 ug/disk. In kind it is functional, organism-based.
Assay [3] relates to HCT-116. The experiment in a line: Cytotoxicity against human HCT116 cells. Format: functional, cell-based.
Assay [4] relates to Escherichia coli. The assay is described as follows: Antimicrobial activity against Escherichia coli at 5 ug/disk. In kind it is functional, organism-based.
For assay [5], the system named is Staphylococcus aureus. The experiment in a line: Antimicrobial activity against Staphylococcus aureus at 5 ug/disk. Format: functional, organism-based.
The test system of assay [6] is Escherichia coli. The assay is described as follows: Antimicrobial activity against Escherichia coli at 1 ug/disk. In kind it is functional, organism-based.
The test system of assay [7] is Staphylococcus aureus. The assay is described as follows: Antimicrobial activity against Staphylococcus aureus at 1 ug/disk. Format: functional, organism-based.

In brackets after ≈: the same amount, converted by molar mass. Activity calls are given as the source filed them. The rule behind the calls is not given here.

One may read the IC50 as the midpoint of a concentration-inhibition curve. A higher IC50 goes with weaker potency in that assay.

Consider `CC(C)=C1[C@H]2CC/C(C)=C/CC/C(C)=C/C[C@]2(C)C[C@@H]1O` (relative stereo), for which the result in assay [1], in assay [2], in assay [4], in assay [5], in assay [6] and in assay [7] was inactive. The compound further had an IC50 in assay [3] of 9 µg/mL (≈ 31.2 µM).

Turning to `CC(C)=C1[C@H](O)C[C@@]2(C)C/C=C(\C)CC/C=C(\C)CC[C@H]12` (relative stereo) [ISOPALOMINOL], the result in assay [1], in assay [2], in assay [4], in assay [5], in assay [6] and in assay [7] was inactive. In addition, the IC50 in assay [3] came out at 30 µg/mL (≈ 104 µM).

Turning to `CC(C)=C1C(=O)C[C@@]2(C)C/C=C(\C)CC/C=C(\C)CC[C@H]12` [DOLABELLANE], the result in assay [1], in assay [2], in assay [4], in assay [5], in assay [6] and in assay [7] was inactive. Further, in assay [3], the IC50 came out at 10 µg/mL (≈ 34.9 µM).

In the case of `C/C1=C\C[C@]2(C)CC=C(C(C)(C)O)[C@H]2CC/C(C)=C/CC1` [PALOMINOL], the result in assay [1], in assay [2], in assay [4], in assay [5], in assay [6] and in assay [7] was inactive. In assay [3], this compound came in with an IC50 of 10 µg/mL (≈ 34.7 µM).

The record behind these values is ChEMBL document CHEMBL1147390, “The structure of palominol by interpretation of two-dimensional NMR shift correlation experiments: isolation and structure determination of isopalominol” (J Nat Prod, 1993).
